Assay results reported in patent US11207320B2, “Compositions and methods for cancer expressing PDE3A or SLFN12” (The Broad Institute, Inc., priority 2015, dated 2021).

Experiments:
HeLa cells [1] = test: DNMDP cytotoxicity after targeting PDE3A locus using CRISPR; format: cell-based; settings: HeLa infected with Cas9 and sgRNAs against PDE3A
Procedure: FIG. 11A is a Western blot. HeLa cells were infected with Cas9 and indicated guide RNAs (sgRNA) against PDE3A. Western blots were probed for PDE3A at indicated time points. FIG. 11B is a bar graph showing percent rescue of HeLa cells that were infected with indicated sgRNAs for two weeks and treated with 1 μM of 6-(4-(diethylamino)-3-nitrophenyl)-5-methyl-4,5-dihydropyridazin-3(2H)-one (DNMDP) for 48 hours. Percent rescue was normalized to the Cas9-only control. FIG. 11C is a plot showing viability of cells infected with indicated sgRNAs and treated with various concentrations of 6-(4-(diethylamino)-3-nitrophenyl)-5-methyl-4,5-dihydropyridazin-3(2H)-one (DNMDP).
Based on the observations that DNMDP-sensitive cells expressed high levels of PDE3A, and that DNMDP competed with non-cytotoxic inhibitors for PDE3A binding, it was hypothesized that DNMDP mediated its cytotoxic phenotype through the interaction with PDE3A and that PDE3A abundance was a direct cellular determinant of DNMDP sensitivity. To validate this hypothesis, the effect of reducing levels of PDE3A on the response to DNMDP was tested. […] In an independent approach using an siRNA smart-pool containing four different siRNAs targeting PDE3A, PDE3A expression was reduced in HeLa cell line with a maximum efficiency of 70% between 24 and 72 hours after transfection. […]

HeLa cells [2] = test: Caspase activity in HeLa cells (Caspase-Glo); format: cell-based; settings: DNMDP treatment 48 hours
Procedure: 1000 HeLa cells were plated in 384-well plate in 40 μl of corresponding growth media supplemented with 10% Fetal Bovine Serum. 24 hours after plating, indicated compounds were added at indicated concentrations and incubated for 48 hours. Caspase-Glo from Promega was added according to the manufacturers recommendations and luminescence was determined as described in Compound library screening in NCI-H1734 and A549 cell lines.

A549 cells = test: Compound library screening and dose-response retest, cell viability (ATP content, CellTiter-Glo); format: cell-based; settings: A549, 48 hours
Procedure: (§1) To identify anti-cancer compounds with cell-selective cytotoxic activity, an unbiased chemical screen was performed in two lung adenocarcinoma cell lines, A549 and NCI-H1734, both of which harbor oncogenic KRAS mutations and truncating STK11 mutations, and which were TP53 wild type and mutant (R273L), respectively. 1,924 compounds were screened from the Molecular Libraries Small-Molecule Repository validation set in the A549 and NCI-H1734 cell lines at a single concentration of 10 μM in 384-well format in duplicate. As a proxy for cellular viability, ATP content was measured after 48 hours of compound treatment.
(§2) 1500 NCI-H1734 or 1000 A549 cells were plated in a 384-well plate in 40 μl of RPMI supplemented with 10% Fetal Bovine Serum and 1% Pen/Strep. 24 hours after plating, a compound-library of 1924 small molecules was added at a concentration of 10 μM. Staurosporine was used a positive control for cytotoxicity at a concentration of 10 μM, and DMSO was used a negative control at a concentration of 1%. All compounds were incubated for 48 hours with indicated small molecules. […] Cell viability was assessed by adding 40 μl of a 25% CELLTITERGLO® (Promega) in PBS with a THERMO COMBI™ or multichannel-pipette and incubated for 10 minutes. The luminescence signal was read using a Perkin-Elmer EnVision. Viability percentage was calculated by normalizing to DMSO controls.

NCI-H1734 cells = test: as above; format: cell-based; settings: NCI-H1734, 48 hours
Procedure: as §1, §2

HeLa cells [3] = test: Compound sensitivity testing in cell lines (48 h viability); format: cell-based
Procedure: 1500 NCI-H1734 or 1000 A549 cells were plated in a 384-well plate in 40 μl of RPMI supplemented with 10% Fetal Bovine Serum and 1% Pen/Strep. 24 hours after plating, a compound-library of 1924 small molecules was added at a concentration of 10 μM. Staurosporine was used a positive control for cytotoxicity at a concentration of 10 μM, and DMSO was used a negative control at a concentration of 1%. All compounds were incubated for 48 hours with indicated small molecules. After 48 hours, 384-well plates were removed from the incubator and allowed to cool to room temperature for 20 minutes. Cell viability was assessed by adding 40 μl of a 25% CELLTITERGLO® (Promega) in PBS with a THERMO COMBI™ or multichannel-pipette and incubated for 10 minutes. The luminescence signal was read using a Perkin-Elmer EnVision. Viability percentage was calculated by normalizing to DMSO controls.
1000 HeLa (DMEM), 1000 A549 (RPMI), 500 MCF-7 (DMEM), 4000 PC3 (F12-K), 1000 NCI-H2122 (RPMI) or 1500 NCI-H1563 (RPMI) cells were plated in a 384-well plate in 40 μl of corresponding growth media supplemented with 10% Fetal Bovine Serum. 24 hours after plating, indicated compounds were added at indicated concentrations and incubated for 48 hours. Cell viability was assessed as described in Compound library screening in NCI-H1734 and A549 cell lines.

PDE3A(677-1141) = biological target: T1, PDE3A(677-1141) (Homo sapiens, UniProt Q14432); test: Differential scanning fluorimetry (DSF) binding; settings: 5 μM protein, 100 μM compound
T1 construct: purified PDE3A catalytic domain, PDE3A(677-1141)
T1 sequence (Q14432 677-1141): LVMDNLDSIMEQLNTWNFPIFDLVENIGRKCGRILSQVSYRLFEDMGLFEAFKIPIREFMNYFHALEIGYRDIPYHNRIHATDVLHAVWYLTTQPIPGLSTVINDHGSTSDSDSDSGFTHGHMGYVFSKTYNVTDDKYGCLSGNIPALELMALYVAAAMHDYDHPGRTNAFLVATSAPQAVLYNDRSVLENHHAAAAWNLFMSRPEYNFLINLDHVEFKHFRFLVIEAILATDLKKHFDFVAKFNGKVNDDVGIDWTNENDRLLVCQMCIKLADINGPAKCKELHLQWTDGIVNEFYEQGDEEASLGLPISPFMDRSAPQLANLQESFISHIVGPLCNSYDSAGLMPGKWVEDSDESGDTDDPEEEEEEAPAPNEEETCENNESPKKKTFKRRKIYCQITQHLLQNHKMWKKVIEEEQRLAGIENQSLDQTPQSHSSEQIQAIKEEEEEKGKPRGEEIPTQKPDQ
Procedure: Binding buffer: 20 mM Hepes pH 7.4, 100 μM TCEP, 1 mM MgCl2, 150 mM NaCl.

SMILES | rescue of toxicity by PDE3A sgRNA2 and sgRNA3 (HeLa cells [1]) | Caspase activity (caspase-sensitive luciferase assay) (HeLa cells [2]) | effect on cell viability (A549 cells) | toxicity in dose-response analysis (NCI-H1734 cells) | EC70 (HeLa cells [3]; HeLa) | EC50 (HeLa cells [3]; Homo sapiens, HeLa cervical carcinoma cells) | Tm (° C.) (PDE3A(677-1141)) | ΔTm at 100 µM (PDE3A(677-1141)) | effect on HeLa cell viability / cytotoxicity (HeLa cells [3]; HeLa)
CCN(CC)c1ccc(C2=NNC(=O)CC2C)cc1[N+](=O)[O-] (centres unmarked) [DNMDP, 6-(4-(diethylamino)-3-nitrophenyl)-5-methyl-4,5-dihydropyridazin-3(2H)-one] | significant rescue of toxicity | detected | did not affect cell viability | specifically toxic | 0.03 µM | 0.01 to 0.1 µM | 58.4 ± 0.0 °C | 6 °C | 
COc1cc2c(cc1OC)-c1c/c(=N\c3c(C)cc(C)cc3C)n(C)c(=O)n1CC2 [trequinsin, 9,10-dimethoxy-3-methyl-2-(2,4,6-trimethylphenyl)imino-6,7-dihydropyrimido[6,1-a]isoquinolin-4-one] |  |  |  |  |  |  | 66.2 ± 0.0 °C | 14.2 °C | did not affect HeLa cell viability in any detectable way
